Assay results reported in PMC6593178 (Bioorganic & Medicinal Chemistry Letters, 2019).
“Also recorded” adds a separate entry of the source. Read-outs that look alike come from different tables or passages of the source.

Assays:
[1] = biological target: T1, CphA (Aeromonas hydrophila, UniProt P26918); test: β-lactamase inhibition, meropenem hydrolysis UV assay; type: biochemical; conditions: subclass B2
T1 construct: made in house; host or cells: E. coli
Procedure: (§1) Recombinant MBLs and SBLs were produced in E. coli and purified following reported procedures^1-6 and were all >95% pure (as judged by SDS-PAGE and MS analyses). Note the TEM enzyme used in this study is named TEM-116^7, in previous studies this has been assigned incorrectly as TEM-1^3, 5, 8-14. […] Activity was assayed by monitoring the release of a fluorophore following the enzymatic breakdown of the cephalosporin FC-5^15, with the exception of the class B2 MBLs, where the hydrolysis of meropenem was used as a readout^16. FC-5 assays were conducted in clear bottomed 384 black well microplates (Greiner) and the initial rate of reaction was assessed by monitoring the fluorescence intensity (λex = 380 nm and λem = 460 nm) using a PHERAstar FS (BMG LabTech) plate reader^15. For the B2 MBLs, assays were carried out in 96 well UV star microplates (Greiner) and UV absorbance at λ = 300 nm monitored. Initial rates of reaction were determined and dose-response analyses conducted in GraphPad Prism^15.

[2] = biological target: T2, AmpC (Pseudomonas aeruginosa, UniProt P24735); test: β-lactamase inhibition, FC-5 fluorogenic cephalosporin assay; type: biochemical; conditions: class C
T2 construct: made in house; host or cells: E. coli
Procedure: as §1

[3] = biological target: T3, IMP-1 (Serratia marcescens, UniProt P52699); test: as above; type: biochemical; conditions: IMP-1, subclass B1
T3 construct: made in house; host or cells: E. coli
Procedure: as §1

[4] = biological target: T4, KPC-2 (Klebsiella pneumoniae, UniProt Q9F663); test: as above; type: biochemical; conditions: KPC-2, class A
T4 construct: made in house; host or cells: E. coli
Procedure: as §1

[5] = biological target: T5, L1 (Stenotrophomonas maltophilia, UniProt P52700); test: as above; type: biochemical; conditions: L1, subclass B3
T5 construct: made in house; host or cells: E. coli
Procedure: as §1

[6] = biological target: T6, NDM-1 (Klebsiella pneumoniae, UniProt C7C422); test: as above; type: biochemical; conditions: NDM-1, subclass B1
T6 construct: made in house; host or cells: E. coli
Procedure: as §1

[7] = biological target: T7, OXA-10 (Pseudomonas aeruginosa, UniProt P14489); test: as above; type: biochemical; conditions: for IC50: OXA-10, class D
T7 construct: made in house; host or cells: E. coli
Procedure: as §1

[8] = biological target: T8, VIM-1 (Pseudomonas aeruginosa, UniProt A0A0F7KYQ8); test: as above; type: biochemical; conditions: VIM-1, subclass B1
T8 construct: made in house; host or cells: E. coli
Procedure: as §1

[9] = biological target: T9, VIM-2 (Escherichia coli, UniProt Q5U7L7); test: as above; type: biochemical; conditions: VIM-2, subclass B1
T9 construct: made in house; host or cells: E. coli
Procedure: as §1

[10] = biological target: T10, OXA-48 (Klebsiella pneumoniae, UniProt Q6XEC0); test: as above; type: biochemical; conditions: Vaborbactam IC50, OXA-48, class D, 100 mM NaHCO3
T10 construct: made in house; host or cells: E. coli

[11] = biological target: CTX-M15; design: method as in PMID 25782055; conditions: read-out: Vaborbactam Ki; CTX-M15, nitrocefin assay; cited from earlier work
[12] = biological target: SHV-12; conditions: read-out: Vaborbactam Ki; SHV-12, nitrocefin assay; cited from earlier work
[13] = biological target: KPC-2 carbapenemase; design: method as in PMID 25782055; conditions: read-out: Vaborbactam Ki; KPC-2, nitrocefin assay; cited from earlier work
[14] = biological target: cephalosporinase P99; design: method as in PMID 25782055; conditions: read-out: Vaborbactam Ki; P99, nitrocefin assay; cited from earlier work
[15] = biological target: CMY-2; design: method as in PMID 25782055; conditions: read-out: Vaborbactam Ki; CMY-2, nitrocefin assay; cited from earlier work
[16] = test system: class B MBLs (IMP-1, VIM-1, VIM-2, NDM-1 and L1); design: method as in PMID 27401561; conditions: across the same range of inhibitor concentrations as vaborbactam; cited from earlier work
[17] = test system: CTX-M15; design: method as in PMID 28115348; conditions: read-out: Cyclic Boronate (CB2) IC50; cited from earlier work
[18] = biological target: T1, CphA; conditions: cited from earlier work
[19] = biological target: T5, L1; conditions: cited from earlier work
[20] = biological target: T2, AmpC; conditions: read-out: Cyclic Boronate (CB2) IC50; cited from earlier work

T1 sequence (P26918 28-254): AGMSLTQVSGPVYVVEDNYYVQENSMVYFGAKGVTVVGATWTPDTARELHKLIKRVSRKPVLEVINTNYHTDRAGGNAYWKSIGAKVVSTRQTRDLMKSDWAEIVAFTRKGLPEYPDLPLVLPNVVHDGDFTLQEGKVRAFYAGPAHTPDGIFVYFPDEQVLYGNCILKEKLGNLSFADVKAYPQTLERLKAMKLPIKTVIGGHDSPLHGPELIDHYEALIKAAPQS
T5 sequence (P52700 34-290): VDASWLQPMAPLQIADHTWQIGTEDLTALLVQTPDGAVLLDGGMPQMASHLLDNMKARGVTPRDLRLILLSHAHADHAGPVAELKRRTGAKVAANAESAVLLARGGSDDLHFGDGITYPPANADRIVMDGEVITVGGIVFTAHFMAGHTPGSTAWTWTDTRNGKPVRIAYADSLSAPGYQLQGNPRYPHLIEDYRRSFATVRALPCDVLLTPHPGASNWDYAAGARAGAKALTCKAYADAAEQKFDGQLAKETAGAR
T7 sequence (P14489 20-266, species assumed): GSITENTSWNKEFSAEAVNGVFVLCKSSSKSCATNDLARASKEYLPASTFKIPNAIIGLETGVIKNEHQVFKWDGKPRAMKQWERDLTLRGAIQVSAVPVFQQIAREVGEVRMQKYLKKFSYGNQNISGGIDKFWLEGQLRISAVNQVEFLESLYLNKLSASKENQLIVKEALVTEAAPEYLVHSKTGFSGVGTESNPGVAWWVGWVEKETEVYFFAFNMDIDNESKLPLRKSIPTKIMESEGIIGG
T2 sequence (P24735 27-397): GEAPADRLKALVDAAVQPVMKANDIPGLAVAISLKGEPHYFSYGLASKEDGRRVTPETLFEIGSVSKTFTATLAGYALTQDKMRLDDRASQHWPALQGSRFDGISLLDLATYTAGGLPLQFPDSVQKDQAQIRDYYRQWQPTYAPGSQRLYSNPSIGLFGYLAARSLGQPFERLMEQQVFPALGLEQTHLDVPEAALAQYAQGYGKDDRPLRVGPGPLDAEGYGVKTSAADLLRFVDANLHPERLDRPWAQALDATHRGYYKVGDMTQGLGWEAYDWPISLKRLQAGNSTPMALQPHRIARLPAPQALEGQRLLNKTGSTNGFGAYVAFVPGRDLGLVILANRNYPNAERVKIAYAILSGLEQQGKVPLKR
T10 sequence (Q6XEC0 23-265, looked up, species assumed): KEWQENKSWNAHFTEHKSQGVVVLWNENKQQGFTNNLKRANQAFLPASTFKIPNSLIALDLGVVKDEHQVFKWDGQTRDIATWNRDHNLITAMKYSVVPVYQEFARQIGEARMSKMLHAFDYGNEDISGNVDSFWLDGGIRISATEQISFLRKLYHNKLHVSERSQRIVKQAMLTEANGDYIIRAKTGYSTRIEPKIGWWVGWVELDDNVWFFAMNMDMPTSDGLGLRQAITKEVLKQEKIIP
T6 sequence (C7C422 29-270, looked up, species assumed): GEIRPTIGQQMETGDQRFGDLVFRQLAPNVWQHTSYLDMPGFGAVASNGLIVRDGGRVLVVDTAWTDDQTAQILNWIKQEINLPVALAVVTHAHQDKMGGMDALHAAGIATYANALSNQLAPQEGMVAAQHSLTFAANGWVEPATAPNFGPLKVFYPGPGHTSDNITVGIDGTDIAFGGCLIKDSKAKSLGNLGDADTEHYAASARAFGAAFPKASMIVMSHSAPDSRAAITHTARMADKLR
T4 sequence (Q9F663 25-293, looked up, species assumed): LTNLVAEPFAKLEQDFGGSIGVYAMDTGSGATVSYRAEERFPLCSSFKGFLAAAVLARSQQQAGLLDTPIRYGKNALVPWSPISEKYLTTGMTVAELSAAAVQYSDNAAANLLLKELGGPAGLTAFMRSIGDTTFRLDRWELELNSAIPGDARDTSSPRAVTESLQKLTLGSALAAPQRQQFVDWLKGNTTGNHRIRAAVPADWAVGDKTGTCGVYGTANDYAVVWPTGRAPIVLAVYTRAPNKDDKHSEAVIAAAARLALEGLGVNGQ
T3 sequence (P52699 19-246, looked up, species assumed): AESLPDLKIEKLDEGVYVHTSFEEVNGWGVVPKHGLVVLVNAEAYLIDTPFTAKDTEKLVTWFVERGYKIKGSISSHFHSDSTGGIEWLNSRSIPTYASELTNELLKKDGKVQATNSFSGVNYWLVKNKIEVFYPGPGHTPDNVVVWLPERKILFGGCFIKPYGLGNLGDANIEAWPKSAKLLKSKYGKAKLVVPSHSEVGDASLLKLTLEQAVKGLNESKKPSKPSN

O=C(O)C[C@@H]1CC[C@H](NC(=O)Cc2cccs2)B(O)O1 [Vaborbactam, vaborbactam] gave an IC50 [1] of 631 µM, an IC50 [2] of 5 µM and an IC50 [3] of 126 µM. The IC50 [4] was 0.09 µM, the IC50 [5] was 336 µM and the IC50 [6] was 631 µM. For the same compound, the IC50 ([7]; without NaHCO3) was > 400 µM, the IC50 ([7]; read-out: Vaborbactam IC50, 100 mM NaHCO3) was > 400 µM and the inhibition at 400 µM ([7]; read-out: inhibition of OXA-10 at the highest tested concentration) was < 50%. It also gave an IC50 [8] of 398 µM, an IC50 [9] of 316 µM and an IC50 [10] of 32 µM. The Ki [11] was 0.044 µM, the Ki [12] was 0.029 µM and the Ki [13] was 0.069 µM. The Ki [14] was 0.053 µM and the Ki [15] was 0.099 µM.

In the case of NC(=O)[C@@H]1CC[C@@H]2CN1C(=O)N2OS(=O)(=O)O [avibactam], the “inhibition of MBLs” value [16] is listed as “does not show any inhibition”.

For NCc1ccc(C(=O)N[C@H]2Cc3cccc(C(=O)O)c3OB2O)cc1 [CB2], the IC50 [17] is listed as 0.013 µM, the “inhibitory activity against B2 CphA” value ([18]; CphA (mono Zn(II))) is listed as “do not exhibit inhibitory activity” and the IC50 ([18]; read-out: Cyclic Boronate (CB2) IC50, CphA) is listed as > 100 µM. The “Cyclic Boronate (CB2) IC50” value [19] was “do not exhibit inhibitory activity; also recorded: Not inhibited[19]” and the IC50 [20] was 0.12 µM.
